Assay results reported in publication PMC4499133, “ATP-dependent motor activity of the transcription termination factor Rho from Mycobacterium tuberculosis” (Nucleic Acids Research, 2015).

Biological target: T1, MtbRho (transcription termination factor Rho) (Mycobacterium tuberculosis, UniProt P9WHF3)
T1 construct: WT MtbRho, N-terminal His tag, hexamer
Assay: biochemical

T1 sequence (P9WHF3 whole entry): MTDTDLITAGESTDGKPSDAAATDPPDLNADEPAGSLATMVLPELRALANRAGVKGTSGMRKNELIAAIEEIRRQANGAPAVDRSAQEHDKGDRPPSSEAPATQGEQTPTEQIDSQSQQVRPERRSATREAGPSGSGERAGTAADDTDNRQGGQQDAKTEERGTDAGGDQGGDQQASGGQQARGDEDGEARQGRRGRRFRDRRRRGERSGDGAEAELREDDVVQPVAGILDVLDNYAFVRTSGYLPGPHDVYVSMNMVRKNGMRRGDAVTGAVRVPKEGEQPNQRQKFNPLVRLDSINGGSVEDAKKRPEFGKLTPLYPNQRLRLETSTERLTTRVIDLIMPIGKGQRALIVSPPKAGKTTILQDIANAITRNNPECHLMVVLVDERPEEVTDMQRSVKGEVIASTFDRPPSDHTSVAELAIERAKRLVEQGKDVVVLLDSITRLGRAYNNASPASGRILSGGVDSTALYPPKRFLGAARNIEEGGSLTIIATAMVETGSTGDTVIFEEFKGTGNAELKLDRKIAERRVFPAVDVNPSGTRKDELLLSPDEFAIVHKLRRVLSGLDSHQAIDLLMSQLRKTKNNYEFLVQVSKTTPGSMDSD

C=C1CCO[C@]2([C@@H](O)[C@@](C)(O)CO)NC(=O)[C@@]1(O)NC2=O [BCM, bicyclomycin]
IC50: 157 ± 20 µM
